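A five-concentration, 48-hour dose response in 96-well plates underlies each endpoint, interpolated linearly between surrounding concentrations. Definition used: TGI = concentration required for complete inhibition of growth.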
Columns and labels:
Experiment in all cases: inhibition of tumour cell growth, NCI panel, 48 h
RXF 393 renal = tested on: RXF 393 renal
BT-549 breast = tested on: BT-549 breast
TK-10 renal = tested on: TK-10 renal
A549 NSCLC = tested on: A549 NSCLC
SK-MEL-5 melanoma = tested on: SK-MEL-5 melanoma
SF-539 CNS = tested on: SF-539 CNS
LOX IMVI melanoma = tested on: LOX IMVI melanoma
SN12C renal = tested on: SN12C renal
MOLT-4 leukemia = tested on: MOLT-4 leukemia
HL-60(TB) leukemia = tested on: HL-60(TB) leukemia
NCI-H23 lung = tested on: NCI-H23 lung
SNB-75 CNS = tested on: SNB-75 CNS
EKVX NSCLC = tested on: EKVX NSCLC
UACC-62 melanoma = tested on: UACC-62 melanoma
ACHN renal = tested on: ACHN renal
OVCAR-8 ovarian = tested on: OVCAR-8 ovarian
HOP-92 NSCLC = tested on: HOP-92 NSCLC
UACC-257 melanoma = tested on: UACC-257 melanoma
A498 renal = tested on: A498 renal

Measured: TGI

Cc1nn(C(=O)c2ccncc2)c2c1C(c1ccc(Cl)cc1)SC(N)=N2 (stereo unspecified)
not listed: A498 renal
> 10 µM: all other assays above

c1cc(CSP234N5CCN2CCN3CCN4CC5)ccc1CSP123N4CCN1CCN2CCN3CC4
79.8 µM: HL-60(TB) leukemia
not listed: RXF 393 renal | A498 renal
> 100 µM: all other assays above

CCCCn1cnnc1NS(=O)(=O)c1cc(C)c(Cl)cc1SCC(=O)O
not listed: HOP-92 NSCLC
> 10 µM: all other assays above

CCN1CN(c2ccccc2)C2(CCN(CCCSc3ccc(F)cc3)CC2)C1=O
26.3 µM: TK-10 renal
21.2 µM: A549 NSCLC | EKVX NSCLC
17.1 µM: UACC-257 melanoma
30.5 µM: OVCAR-8 ovarian
26.6 µM: HL-60(TB) leukemia
31.5 µM: LOX IMVI melanoma
30.1 µM: SNB-75 CNS
24.1 µM: NCI-H23 lung | ACHN renal
20.5 µM: SN12C renal
25.7 µM: RXF 393 renal
30.2 µM: UACC-62 melanoma
23.7 µM: MOLT-4 leukemia
21.4 µM: BT-549 breast
13.8 µM: SK-MEL-5 melanoma
21.5 µM: SF-539 CNS

O=C(Cn1cc(F)c(=O)[nH]c1=O)C12CC3CC(CC(C3)C1)C2
not listed: HOP-92 NSCLC
> 100 µM: all other assays above

CCO[C@@H]1CCC(S(=O)c2ccc(C)cc2)=CO1 (stereo partly specified)
not listed: A549 NSCLC | SF-539 CNS | HOP-92 NSCLC
> 100 µM: all other assays above

CC(C)(C)[Si](C)(C)OCC1OC(n2ccc(=O)[nH]c2=O)C(O[Si](C)(C)C(C)(C)C)[C@@]12O[C@H]2C(N)=O (stereo partly specified)
40.2 µM: BT-549 breast
99.3 µM: UACC-62 melanoma
16.5 µM: SK-MEL-5 melanoma | ACHN renal
> 100 µM: MOLT-4 leukemia | HL-60(TB) leukemia | UACC-257 melanoma
30.3 µM: SN12C renal
28.7 µM: NCI-H23 lung
32.5 µM: OVCAR-8 ovarian
25.9 µM: A549 NSCLC
18.1 µM: LOX IMVI melanoma
13.4 µM: SF-539 CNS
48.3 µM: TK-10 renal
34.4 µM: EKVX NSCLC
24.7 µM: SNB-75 CNS

O=C1NC(=S)NC(=O)C1C(c1ccc([N+](=O)[O-])cc1)C1C(=O)NC(=S)NC1=O
not listed: SF-539 CNS | SNB-75 CNS
> 100 µM: all other assays above

CC1(C)C2CCC(N)(C2)C1N (stereo unspecified)
not listed: SF-539 CNS
> 100 µM: all other assays above

COc1cc(/C=C/C(=O)OC2C(O)C3CC(OC(=O)c4cc(OC)c(OC)c(OC)c4)CC2N3C)cc(OC)c1OC (stereo unspecified)
17.7 µM: A498 renal
not listed: HL-60(TB) leukemia
> 50 µM: all other assays above

CCN(CC)c1ccc(C2SCC(=O)N2c2ccc(NC(=O)c3ccc(N4C(=O)CSC4c4ccc(N(CC)CC)cc4)cc3)cc2)cc1 (stereo unspecified)
not listed: HL-60(TB) leukemia | A498 renal
> 100 µM: all other assays above

Cc1cccc2c(=O)c3c(O)cc(O)cc3[nH]c12
not listed: HL-60(TB) leukemia
> 10 µM: all other assays above

N#CCCSC1SC(=C2SC3=C(SCCS3)S2)SC1SCCC#N (stereo unspecified)
not listed: SNB-75 CNS
> 100 µM: all other assays above

— PubChem BioAssay (NCI)
